In data set [1] the target is T1, HIV-1 protease (Q7S) (Human immunodeficiency virus type 1 group M subtype B, UniProt P04585, Q495S).
T1 construct: made in house
As to the kind of experiment: HIV-1 Protease RET Assay. Type of data set: biochemical. In a few lines: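 Ki values came from a RET assay on refolded Q7S protease (2 nM active dimer) cleaving RE(EDANS)SQNYPIVQK(DABCYL)R at 5 μM, read at ex 340/em 490 nm. Reactions ran 12 min at 37 C in 0.1M sodium acetate pH 4.8, 1M NaCl, 5 mM DTT, 10% DMSO; curves were fit with the Morrison tight-binding equation.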

Data set [2] has as its system HIV-1. As to the kind of experiment: Cytopathic Effect (CPE) Inhibition Assay (XTT dye reduction). It counts as cell-based. The gist of the method:
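CEM-SS or MT-2 cells infected with HIV-1 RF or NL4–3 (moi 0.025–0.819), 2×10^4 cells/well, incubated six days with half-log compound dilutions. Viability read by XTT formazan at 450 nm; EC50 is the concentration restoring 50% of uninfected-control formazan, CC50 from uninfected treated cells, therapeutic index CC50/EC50.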

[3] abbreviates: Ave. Ki (nM), RET assay, Q7S enzyme, pH 4.8, 37 C.
[4] abbreviates: Human immunodeficiency virus 1, 144 h, read-out: Ave CPE EC50 (mM).
The mark [5] stands for this setting: Ki, table of drawn compounds, unit inferred.

Like-named read-outs stand apart in the source and are kept apart here.

Ki, EC50 and melting point data for 19 compounds are collected here from patent US7169932B2 (priority 2001, dated 2007).

On to `Cc1ccccc1CNC(=O)[C@H]1N(C(=O)[C@@H](O)[C@H](Cc2ccccc2)NC(=O)c2ccno2)CSC1(C)C` [Example B2, Isoxazole-5-carboxylic acid {(1S,2S)-1-benzyl-3-[(R)-5,5-dimethyl-4-(2-methyl-benzylcarbamoyl)-thiazolidin-3-yl]-2-hydroxy-3-oxo-propyl}-amide], for which the melting point is 82 to 84 °C. Moreover, in data set [1] (setting [3]), affinity was put at a Ki of 0.78 nM. In addition, the half-maximal effective concentration (EC50) in data set [2] (setting [4]) was 369 nM.

The compound `Cc1ccccc1CNC(=O)[C@H]1N(C(=O)[C@@H](O)[C@H](Cc2ccccc2)NC(=O)c2ccsc2)CSC1(C)C` [Example B6, (R)-3-{(2S,3S)-2-Hydroxy-4-phenyl-3-[(1-thiophen-3-yl-methanoyl)-amino]-butanoyl}-5,5-dimethyl-thiazolidine-4-carboxylic acid 2-methyl-benzylamide] registered a melting point of 98 to 100 °C. Also, in data set [1] (setting [3]), the Ki was determined as 1.6 nM. Also, in data set [2] (setting [4]), the EC50 stood at 589 nM.

Take `Cc1c(O)cccc1C(=O)N[C@@H](Cc1ccccc1)[C@H](O)C(=O)N1CSC(C)(C)[C@H]1C(=O)N[C@H](C)c1ccccc1` [Example A21, (R)-3-((2S,3S)-2-Hydroxy-3-{[1-(3-hydroxy-2-methyl-phenyl)-methanoyl]-amino}-4-phenyl-butanoyl)-5,5-dimethyl-thiazolidine-4-carboxylic acid ((R)-1-phenyl-ethyl)-amide]: the melting point is 114 to 115 °C. In addition, in data set [1] (setting [3]), the Ki amounted to 1.9 nM. The EC50 in data set [2] (setting [4]) is 717 nM.

`Cc1ccccc1CNC(=O)[C@H]1N(C(=O)[C@@H](O)[C@H](Cc2ccccc2)NC(=O)c2cccs2)CSC1(C)C` [Example B5, (R)-3-{(2S,3S)-2-Hydroxy-4-phenyl-3-[(1-thiophen-2-yl-methanoyl)-amino]-butanoyl}-5,5-dimethyl-thiazolidine-4-carboxylic acid 2-methyl-benzylamide] gave a melting point of 98 to 101 °C. The Ki in data set [1] (setting [3]) came out at 1.6 nM. Also, the EC50 in data set [2] (setting [4]) came out at 508 nM.

Turning to `Cc1c(O)cccc1C(=O)N[C@@H](Cc1ccccc1)[C@H](O)C(=O)N1CSC(C)(C)[C@H]1C(=O)NCc1cccc(OC(F)(F)F)c1` [Example A25, (R)-3-((2S,3S)-2-Hydroxy-3-{[1-(3-hydroxy-2-methyl-phenyl)-methanoyl]-amino}-4-phenyl-butanoyl)-5,5-dimethyl-thiazolidine-4-carboxylic acid 3-trifluoromethoxy-benzylamide], the melting point lay in the range of 102 to 105 °C. Further, in data set [1] (setting [3]), the Ki was 5.8 nM. In data set [2] (setting [4]), the EC50 worked out at 248 nM.

For `Cc1c(O)cccc1C(=O)N[C@@H](Cc1ccccc1)[C@H](O)C(=O)N1CSC(C)(C)[C@H]1C(=O)NCc1cccc(N(C)C)c1` [Example A39, (R)-3-((2S,3S)-2-Hydroxy-3-{[1-(3-hydroxy-2-methyl-phenyl)-methanoyl]-amino}-4-phenyl-butanoyl)-5,5-dimethyl-thiazolidine-4-carboxylic acid 3-dimethylamino-benzylamide], the melting point lay within 105 to 106 °C. Further, the Ki in data set [1] (setting [3]) came to 0.27 nM. The EC50 in data set [2] (setting [4]) was found to be 367 nM.

`COc1ccccc1CNC(=O)[C@H]1N(C(=O)C(O)C(Cc2ccccc2)NC(=O)c2cccc(O)c2C)CSC1(C)C` (stereo partly drawn) [Example A3, (R)-3-(2-Hydroxy-3-{[1-(3-hydroxy-2-methyl-phenyl)-methanoyl]-amino}-4-phenyl-butanoyl)-5,5-dimethyl-thiazolidine-4-carboxylic acid 2-methoxy-benzylamide] gave a melting point of 123 to 125 °C. Further, the Ki in data set [1] (setting [3]) is 1.7 nM. The EC50 in data set [2] (setting [4]) stood at 370 nM.

`Cc1c(O)cccc1C(=O)NC(Cc1ccccc1)C(O)C(=O)N1CSC(C)(C)C1C(=O)NCc1cccc(C(F)(F)F)c1` (stereo not shown) [Example A4, 3-(2-Hydroxy-3-{[1-(3-hydroxy-2-methyl-phenyl)-methanoyl]-amino}-4-phenyl-butanoyl)-5,5-dimethyl-thiazolidine-4-carboxylic acid 3-trifluoromethyl-benzylamide] yielded a melting point of 108 to 110 °C. The compound further registered a Ki in data set [1] (setting [3]) of 4.1 nM. The EC50 in data set [2] (setting [4]) was determined as 591 nM.

In turn, `C=CCNC(=O)[C@H]1N(C(=O)[C@@H](O)[C@H](Cc2ccccc2)NC(=O)c2cccc(O)c2C)CSC1(C)C` came in with a melting point of 173 to 175 °C.

Compound `Cc1c(O)cccc1C(=O)N[C@@H](Cc1ccccc1)[C@H](O)C(=O)N1CSC(C)(C)[C@H]1C(=O)NCc1ccc(N)cc1` [Example A16, (R)-3-((2S,3S)-2-Hydroxy-3-{[1-(3-hydroxy-2-methyl-phenyl)-methanoyl]-amino}-4-phenyl-butanoyl)-5,5-dimethyl-thiazolidine-4-carboxylic acid 4-amino-benzylamide] registered a melting point of 107 to 109 °C. The inhibition constant Ki in data set [1] (setting [3]) was found to be 0.63 nM. Besides, the EC50 in data set [2] (setting [4]) worked out at 134 nM.

`CC/C=C\CNC(=O)[C@H]1N(C(=O)[C@@H](O)[C@H](Cc2ccccc2)NC(=O)c2cccc(O)c2C)CSC1(C)C` [Example A37, (R)-3-((2S,3S)-2-Hydroxy-3-{[1-(3-hydroxy-2-methyl-phenyl)-methanoyl]-amino}-4-phenyl-butanoyl)-5,5-dimethyl-thiazolidine-4-carboxylic acid (Z)-pent-2-enylamide] displayed a melting point of 112 to 113 °C. For the same compound, in data set [1] (setting [3]), the Ki was 0.13 nM. In data set [2] (setting [4]), the EC50 worked out at 161 nM.

Compound `CC/C=C/CNC(=O)[C@H]1N(C(=O)[C@@H](O)[C@H](Cc2ccccc2)NC(=O)c2cccc(O)c2C)CSC1(C)C` [Example A36, (R)-3-((2S,3S)-2-Hydroxy-3-{[1-(3-hydroxy-2-methyl-phenyl)-methanoyl]-amino}-4-phenyl-butanoyl)-5,5-dimethyl-thiazolidine-4-carboxylic acid (E)-pent-2-enylamide] came in with a melting point of 113 to 115 °C. In data set [1] (setting [3]), this compound came in with a Ki of 0.59 nM. The EC50 in data set [2] (setting [4]) was found to be 519 nM.

As for `Cc1ccccc1CNC(=O)[C@H]1N(C(=O)[C@@H](O)[C@H](Cc2ccccc2)NC(=O)[C@@H]2CCCO2)CSC1(C)C` [Example B7, (R)-3-{(2S,3S)-2-Hydroxy-4-phenyl-3-[((S)-1-tetrahydro-furan-2-yl-methanoyl)-amino]-butanoyl}-5,5-dimethyl-thiazolidine-4-carboxylic acid 2-methyl-benzylamide], the melting point fell in the range of 82 to 84 °C. The Ki in data set [1] (setting [3]) is 1.9 nM. Besides, the EC50 in data set [2] (setting [4]) was found to be 680 nM.

Regarding `C/C=C(/C)CNC(=O)[C@H]1N(C(=O)[C@@H](O)[C@H](Cc2ccccc2)NC(=O)c2cccc(O)c2C)CSC1(C)C` [Example A34, (R)-3-((2S,3S)-2-Hydroxy-3-{[1-(3-hydroxy-2-methyl-phenyl)-methanoyl]-amino}-4-phenyl-butanoyl)-5,5-dimethyl-thiazolidine-4-carboxylic acid ((Z)-2-methyl-but-2-enyl)-amide], the inhibition constant (Ki) in data set [1] (setting [3]) is below 0.1 nM. Besides, the EC50 in data set [2] (setting [4]) amounted to 36 nM.

Take `Cc1ncc(C(=O)N[C@@H](Cc2ccccc2)[C@H](O)C(=O)N2CSC(C)(C)[C@H]2C(=O)NCc2ccccc2C)c(=O)[nH]1`: the Ki in data set [1] (setting [5]) is 209 nM. Moreover, the EC50 in data set [2] (Human immunodeficiency virus 1) is at least 10000 nM.

The compound `COCCNC(=O)[C@H]1N(C(=O)[C@@H](O)[C@H](Cc2ccccc2)NC(=O)c2cccc(O)c2C)CSC1(C)C` displayed a Ki in data set [1] (setting [5]) of 0.24 nM. The compound also registered an EC50 in data set [2] (Human immunodeficiency virus 1) of 158 nM.

On to `Cc1ccccc1CNC(=O)[C@H]1N(C(=O)[C@@H](O)[C@H](Cc2ccccc2)NC(=O)c2cccc(F)c2C)CSC1(C)C` [Example B36, (R)-3-((2S,3S)-3-{[1-(3-Fluoro-2-methyl-phenyl)-methanoyl]-amino}-2-hydroxy-4-phenyl-butanoyl)-5,5-dimethyl-thiazolidine-4-carboxylic acid 2-methyl-benzylamide], for which the Ki in data set [1] (setting [3]) is below 0.1 nM. In addition, in data set [2] (setting [4]), the EC50 turned out to be 615 nM.

`Cc1c(O)cccc1C(=O)N[C@@H](Cc1ccccc1)[C@H](O)C(=O)N1CSC(C)(C)C1C(=O)NCCC(C)C` (stereo partly shown) yielded a Ki in data set [1] (setting [5]) of at most 0.1 nM. The compound further yielded an EC50 in data set [2] (Human immunodeficiency virus 1) of 72 nM.

Consider `C/C=C\CNC(=O)[C@H]1N(C(=O)[C@@H](O)[C@H](Cc2ccccc2)NC(=O)c2cccc(O)c2C)CSC1(C)C` [Example A31, (R)-3-((2S,3S)-2-Hydroxy-3-{[1-(3-hydroxy-2-methyl-phenyl)-methanoyl]-amino}-4-phenyl-butanoyl)-5,5-dimethyl-thiazolidine-4-carboxylic acid (Z)-but-2-enylamide], for which the Ki in data set [1] (setting [3]) is below 0.1 nM. Moreover, the EC50 in data set [2] (setting [4]) turned out to be 41 nM.
